Measurements as given in paper PMC10743653, “Combined In Silico and In Vitro Analyses to Assess the Anticancer Potential of Thiazolidinedione–Thiosemicarbazone Hybrid Molecules” (International Journal of Molecular Sciences, 2023).

What was measured:
HepG2 cells [1] = assay: MTT assay, HepG2; format: cell-based, human; details: for IC50: Homo sapiens, HepG2, MTT, 24 h treatment, mean ± SD; for SI (selectivity index): IC50 CCD 841 CoTr divided by IC50 HepG2
Description: (§1) The effects of TZD–TSCs 2–5 on the cellular viability of a panel of cell lines were investigated through an 3-(4,5-dimethylthiazol-2-yl)-2,5-diphenyl-2H-tetrazolium bromide (MTT) assay, following a 24 h treatment with the compounds. The panel consisted of three solid tumor cells: T98G (glioblastoma multiforme), HepG2 (hepatocellular carcinoma, epithelial), and HT29 (colon adenocarcinoma, epithelial), as well as noncancerous cells CCD 841 CoTr (normal colon, epithelial).
(§2) Primary single dose screenings of TZD–TSCs 2–5 were performed at a concentration of 200 μg/mL, and those that elicited a greater than 80% inhibition of cell proliferation were analyzed at several concentrations, to find their half-maximal inhibitory concentration (IC50). The IC50 values, reported as the mean ± SD in Table 2, indicate the concentration of the tested compound that inhibits the growth/viability of the cancer cell population by 50%. In this specific case of an MTT assay, which measures the activity of mitochondrial dehydrogenases (as an indicator of cell viability), the IC50 values stand for the concentration that inhibits the metabolic activity of cells by 50%.
(§3) Human colon adenocarcinoma cells, HT29 (ATCC no. HTB-38), derived from a grade I tumor, were cultured in roswell park memorial institute Medium (RPMI) 1640 medium, supplemented with 10% fetal calf serum (FCS) (GibcoTM, Paisley, UK) and antibiotics (100 U/mL penicillin and 100 μg/mL streptomycin) (Sigma, St. Louis, MO), at 37 °C in a humidified atmosphere with 5% CO2. Human normal colon epithelial cells, CCD 841 CoTr (ATCC no. CRL-1807), were cultured in RPMI 1640 + dulbecco’s modified eagle medium (DMEM) (1:1) medium (Sigma, St. Louis, MO), supplemented with 10% FCS and antibiotics, at 34 °C in a 5% CO2/95% air atmosphere. Human glioblastoma T98G cells were cultured in Dulbecco’s Modified Eagle’s Medium (DMEM) (Sigma Aldrich, St. Louis, MO, USA), supplemented with 10% fetal bovine serum (FBS), penicillin (100 U/mL), and streptomycin (100 μg/mL). Human hepatocellular carcinoma cells, HepG2, were maintained in Eagle’s Minimum Essential Medium, supplemented with 10% FBS, penicillin (100 U/mL), and streptomycin (100 μg/mL).
(§4) After 24 h of incubation of the cells with the tested compounds in 100 μL of culture medium, MTT solution (5 mg/mL, 25 μL/well) was added and incubated for an additional 3 h. The purple crystals of formazan which formed in the medium were solubilized overnight in 10% sodium dodecyl sulphate (SDS) in a 0.01 M HCl mixture. The product was quantified spectrophotometrically by measuring its absorbance at 570 nm using an Emax Microplate Reader (Molecular Devices Corporation, Menlo Park, CA, USA).

HT29 cells = assay: MTT assay, HT29; format: cell-based, human; details: for IC50: Homo sapiens, HT-29, HT29, MTT, 24 h treatment, mean ± SD; for SI (selectivity index): IC50 CCD 841 CoTr divided by IC50 HT29
Description: as §1, §2, §3, §4

CCD 841 CoTr cells [2] = assay: Nitric oxide measurement (Griess), CCD 841 CoTr; format: cell-based, human; details: 200 μg/mL
Description: Nitrate, i.e., a stable end product of NO, was measured in culture supernatants with a spectrophotometric method based on the Griess reaction. Culture supernatants were collected from the cell cultures treated with specific concentrations of the tested compounds (25, 75, 150, and 200 μg/mL, respectively). Briefly, 100 μL of the culture supernatant was placed in 96-well flat-bottomed plates in triplicate and incubated with 100 μL of Griess reagent (1% sulfanilamide/0.1% N-(1-naphthyl)ethylenediamine dihydrochloride) in 3% H3PO4 at room temperature for 10 min. The optical density was measured at 550 nm using a microplate reader. A standard curve was prepared using 0.5–25 μM sodium nitrite (NaNO2) for calibration.

bacteria = system: bacteria; parameters: method as in PMID 29701728; details: in vitro antibacterial potency; cited from earlier work
HepG2 cells [3] = assay: Cell migration (wound healing) assay, HepG2; format: cell-based, human; details: HepG2, IC50 doses (2: 10.39 μM; 3: 2.97 μM), 24 h
Description: The possible anti-migratory effect of 2 and 3 was examined against HepG2 and T98G cells, which most effectively responded to TZD–TSC treatment. The ability of cells to cover the scratched area was monitored after 24 h of incubation with compounds 2 and 3. […] Thus, we can conclude that the anticancer potential of the investigated compounds is enriched by their anti-metastatic effect.
Cell migration ability was evaluated according to a wound healing assay. On the day of the experiment, HepG2 and T98G cells were collected from monolayers using trypsin/EDTA and seeded on 6-well plates at a density of 1 × 10^5 cells mL^−1. After 24 h, when the confluence of cells reached about 80%, a vertical linear scratch was created in the monolayer with a sterile pipette tip. The cells were washed three times with a phosphate-buffered saline (PBS) to remove all cellular debris. […] The open wound area was measured with the NIH ImageJ software version 1.53t (Bethesda, Rockville, MD, USA). The percentage of wound closure was calculated using the following formula [81]: Wound closure (%)=open wound area at 0 h −open wound area at 24 h or 48 h/open wound area at 0 h×100%

[4] = system: human red blood cells (RBCs); assay: In vitro hemolysis assay; format: cell-based; details: 30 min, 37 °C, at IC50 values for HepG2
Description: The hematologic toxicity of the most cytotoxic TZD–TSCs, compounds 2 and 3, was tested via in vitro hemolysis assay, following a 30 min treatment of human RBCs at 37 °C with these compounds.
Human red blood cell (RBC) concentrate was obtained from the Regional Blood Donation and Transfusion Centre (Lublin, Poland). The RBC concentrate (5 mL) was washed three times with sterile PBS and centrifuged at 500 g for 3 minutes. The obtained pellet was suspended in sterile PBS to obtain a 2% suspension, which was subsequently mixed with 1 mL of solution of TZD–TSCs 2 and 3. […] The mixtures were incubated at 37 °C for 30 min and, subsequently, centrifuged at 1400× g for 10 min. The amount of free hemoglobin in the supernatants was measured spectrophotometrically at 405 nm. Negative and positive controls were performed by incubating RBCs with sterile PBS and 0.1% Triton-X, respectively. Each experiment was run in triplicate.

CCD 841 CoTr cells [5] = assay: MTT assay, normal colon epithelial cells; format: cell-based; details: Homo sapiens, CCD 841 CoTr (noncancerous), 24 h treatment, mean ± SD
Description: as §1, §2, §3, §4

Row | SMILES | IC50 (HepG2 cells [1]) | SI (selectivity index) (HepG2 cells [1]) | IC50 (HT29 cells) | SI (selectivity index) (HT29 cells) | NO production, [NO2^−] (CCD 841 CoTr cells [2]) | Minimal inhibitory concentrations (MICs) (bacteria) | Migration of cancer cells (wound healing) (HepG2 cells [3]) | Hemolytic activity (free hemoglobin released) [4] | IC50 (CCD 841 CoTr cells [5])
1 | O=C(C=C1SC(=O)NC1=O)Oc1ccccc1C=NNC(=S)Nc1ccccc1Cl [TZD–TSC 2] | 10.4 ± 0.72 µM | 4.30 | 43.9 ± 1.74 µM | 1.02 | 0.566 µM | 8.48 to 16.94 µM | almost completely suppressed | no specific hemolytic activity | 44.6 ± 2.91 µM
2 | O=C(C=C1SC(=O)NC1=O)Oc1ccccc1C=NNC(=S)Nc1cccc(Cl)c1 [TZD–TSC 3] | 2.97 ± 0.39 µM | 33.80 | 78.3 ± 5.47 µM | 1.28 | 0.492 µM | 8.48 to 16.94 µM | almost completely suppressed | no specific hemolytic activity | 100 ± 4.82 µM
